Test results reported in patent US7521414B2, “Polyol macrolide antitumor-antibiotics from the marine actinomycete strain CNQ140” (priority 2003, dated 2009).
≈ marks a conversion by molar mass, not a printed value.

How the values were obtained:
Type in all cases: cell-based
[1] = system: methicillin resistant Staphylococcus aureus (MRSA); assay: antibiotic activity (MIC) against MRSA
Text: (§1) As shown by the data in Table 1 below the invention therapeutic compounds have both anticancer and antibiotic activity, as illustrated in tests against HCT-116 human colon adenocarcinoma cancer cells (HCT-116); methicillin resistant Staphylococcus aureus (MRSA); and vancomycin-resistant Enterococcus faecium (VREF):
(§2) As shown by the data in Table 1 below the invention therapeutic compounds have both anticancer and antibiotic activity, as illustrated in tests against HCT-116 colon cancer cells (HCT-116); methicillin resistant Staphylococcus aureus (MRSA); and vancomycin-resistant Enterococcus faecium (VREF).

[2] = system: HCT-116 human colon adenocarcinoma cancer cells; assay: anticancer activity against HCT-116 colon cancer cell line; details: for growth inhibition against the cancer cell line HCT-116 human colon carcinoma: in words
Method: For extraction of compounds from the CNQ140 actinomycete, the following protocol was used. Pre-washed XAD-7 resin (20 g) was added to 1 liter of culture and mixed for 1 hour. The contents were collected by filtration, washed with deionized water (1 liter) and eluted with acetone (250 ml). The extraction liquid from each successive extraction step (as shown in FIG. 1) was tested for anticancer activity (IC50) against HCT-116 colon cancer cell line. […] A second extraction step using C-18 reverse phase HPLC and a solvent of 65% MeCN in water yielded four distinct compounds with activity against the colon cancer cell line. […] The chemical structures of these compounds appear below:
as §1
Pre-washed XAD-7 resin (20 g) was added to 1 liter of culture and mixed for 1 hour. The contents were collected by filtration, washed with deionized water (1 liter) and eluted with acetone (250 ml). The extraction liquid from each successive extraction step (as shown in FIG. 1) was tested for anti-cancer activity (IC50) against HCT-116 colon cancer cell line. […] A second chromatographic purification step for fraction CNQ140-3, using C-18 reverse phase HPLC and 65% MeCN in water, yielded four distinct CNQ140 macrolide polyol-polyene compounds with activity against the colon cancer cell line: […]

[3] = system: all 60 cell lines; assay: National Cancer Institute's 60 cancer cell line in vitro cytotoxicity assay
Text: Compounds CNQ140.996a, CNQ140.996b, and CNQ140.996c were examined in the National Cancer Institute's 60 cancer cell line, in vitro, cytotoxicity assay. The following cytoxicity data were derived for the invention compounds: […]

[4] = system: vancomycin-resistant Enterococcus faecium (VREF); assay: antibiotic activity (MIC) against VREF
Text: as §1, §2

Compound	MRSA (MIC microgm/ml) [1] [microgm/ml]	IC50 ([2]; Homo sapiens, HCT-116, HCT-116 cells, read-out: HCT-116 (IC50 microgm/ml)) [µg/mL]	growth inhibition against the cancer cell line HCT-116 human colon carcinoma [2]	GI50 ([3]; average over NCI 60 cell lines, read-out: Average GI50 against all 60 cell lines) [nM]	tissue type selectivity ([3]; most sensitive: 6 of the 8 melanoma cancer types (LOX IMVI, M14, SK-MEL-2, SK-MEL-5, UACC-257, UACC-62))	VREF (MIC microgm/ml) [4] [microgm/ml]	HCT-116 (IC50 microgm/ml) ([2]; HCT-116 cells) [microgm/ml]
CCC(O)CC1CC(O)C/C=C/[C@@H](O)C[C@@H](O)C/C(C)=C/C=C/C=C/C=C\c2cccc(O)c2C(=O)OC(CC(C)O)CC(O)C/C=C/[C@@H](O)C[C@@H](O)C/C(C)=C/C=C/C=C/C=C\c2cccc(O)c2C(=O)O1 (stereo partly shown) [CNQ140.996c]	0.25	2.6 (≈ 2.57 µM)	showed growth inhibition	5.1	significant tissue type selectivity	0.25	
CCC(O)CC1CC(O)C/C=C/[C@@H](O)C[C@@H](O)C/C(C)=C/C=C/C=C/C=C\c2cccc(O)c2C(=O)OC(CC(C)O)CC(O)C/C=C/[C@@H](O)C[C@@H](O)C/C(C)=C/C=C/C=C/C=C\c2cccc(O)c2C(=O)O1 (stereo partly shown) [CNQ140.1010]	0.25		showed growth inhibition			0.25	3.1
